Consider one compound from patent US5693812A, “Polymorphic forms of an angiotensin II antagonist” (priority 1996, dated 1997).

Counter-ions that a name gives are not always drawn.

In one series the test system is AT1 receptors. The note with it: background statement; cited from earlier work.
The next series deals with AT2 binding sites. The conditions noted are these: background statement; cited from earlier work.
Series [1] can be described thus: Solubility in crystallization solvent (water/methanol/isopropyl acetate). It counts as physicochemical. The conditions noted are these: 1:2:2 water/methanol/isopropyl acetate. As for the experimental part:
Step K: Preparation of 3-[2'-(N-Benzyl)sulfonamidobiphenyl-4-yl]methyl-5,7-dimethyl-2-ethyl-3H-imidazo[4,5-b]pyridine potassium salt--(Forms I, Id and W) [drawing 13] In a 72-L four-necked flask fitted with an overhead stirrer and a reflux condenser, 3-[2'-(N-benzyl)sulfonamidobiphenyl-4-yl]methyl-5,7-dimethyl-2-ethyl-3H-imidazo[4,5-b]pyridine 1 (5.04 kg, 9.6 mol), methanol (14.5 L) and water (2.5 L) are mixed. The slurry is warmed to 62° C. under a nitrogen atmosphere and 1.94M potassium hydroxide (4.96 L, 9.61 mol) is added to the slurry at 62° C. over 1.5 hours to provide a homogeneous solution. Isopropyl acetate (13.83 L) is then added at 65° C. and the mixture is warmed to 70° C. The homogeneous solution is filtered at 70° C. to remove any particulates that are present. The filtrate is diluted with isopropyl acetate (1.3 L), methanol (0.6 L) and water (0.1 L). […] The homogeneous mixture is cooled to 52° C. over 2 hours, whereupon potassium salt seed of form "I" (140 g) is added. This mixture becomes cloudy after 30 min. The mixture is aged for 10 hours at 52° C. The white slurry is cooled to 48° C. over 1 hour and stirred for 3 hours. […] The K-salt is considered dry when <0.05% methanol and isopropyl acetate are detected by ^1 H NMR. […] The water content can be monitored by TG analysis. […] The crystal form is monitored by X-ray analysis. […]

As for `CCc1nc2c(C)cc(C)nc2n1Cc1ccc(-c2ccccc2S(=O)(=O)NC(=O)c2ccccc2)cc1` [3-[2'-(N-benzoyl)sulfonamidobiphenyl-4-yl]methyl-5,7-dimethyl-2-ethyl-3H-imidazo[4,5-b]pyridine potassium salt], in the series on AT1 receptors, the “affinity for AT1 receptors” value was “high affinity”. Moreover, in the series with AT2 binding sites, the “affinity for AT2 binding sites” value was “low affinity”. For the same compound, the “solubility of the potassium salt at 0° C.” value in series [1] (0° C.) is 15 mg/mL. For the same compound, the “solubility of the potassium salt at 60° C.” value in series [1] (60° C.) is recorded as 174 mg/mL.
